Source: patent EP0041644B1 (priority 1980, dated 1981)

Key:
B16 Melanoma = B16 Melanoma - Test 3 (sc trocar fragments); type: in vivo, mice; conditions: sc-implanted B16 melanoma
L-1210 Leukemia = L-1210 Leukemia (Table IX); type: in vivo, mice
Protocol: The sodium and ammonium salts of the present invention were tested against transplantable mouse tumors as indicated below.

L1210 Leukemia = L1210 Leukemia - Test 1 (survival of tumor-bearing mice); type: in vivo
Excerpt: This evaluation of the ammonium salt finds the drug to be active against L1210 (ip) leukemia when administered ip one day post-implant of 10^6 L1210 cells (maximum T/C was 164%). […] The vehicle for the ammonium salt was water.

[1] = 0.5 mg/kg/day ip, qd 1→9, in H2O
[2] = 0.5 mg/kg/day ip, qd 1→9, in saline
[3] = 1 mg/kg/day ip, qd 1→9, in saline
[4] = 2 mg/kg/day ip, qd 1→9, in saline
[5] = 4 mg/kg/day ip, d. 1 only, in H2O
[6] = 4 mg/kg/day ip, d. 1 only, in saline
[7] = 6 mg/kg/day ip, d. 1 only, in H2O
[8] = 6 mg/kg/day ip, d. 1 only, in saline
[9] = 8 mg/kg/day ip, d. 1 only, in H2O
[10] = 8 mg/kg/day ip, d. 1 only, in saline
[11] = 10 mg/kg/day ip, d. 1 only, in H2O
[12] = 10 mg/kg/day ip, d. 1 only, in saline

Question: Which results are given for `N.N.[Cl][Pt][Cl]` [Cis-DDP, cis-diammine dichloroplatinum (II)]?
Answer: T/C (B16 Melanoma; given ip): inactive; maximum T/C (B16 Melanoma; given iv): 156%; Average Weight Change,g (L-1210 Leukemia; 0.4 mg/kg/inj ip, qd 1→9): -0.6 g; Effect MST % T/C (L-1210 Leukemia; 0.4 mg/kg/inj ip, qd 1→9): 108 % T/C; MST Days (L-1210 Leukemia; 0.4 mg/kg/inj ip, qd 1→9): 7.0 days; Survivors Day 5(45) (L-1210 Leukemia; 0.4 mg/kg/inj ip, qd 1→9): 6/6; Average Weight Change,g (L-1210 Leukemia; 0.8 mg/kg/inj ip, qd 1→9): -2.1 g; Effect MST % T/C (L-1210 Leukemia; 0.8 mg/kg/inj ip, qd 1→9): 138 % T/C; MST Days (L-1210 Leukemia; 0.8 mg/kg/inj ip, qd 1→9): 9.0 days; Survivors Day 5(45) (L-1210 Leukemia; 0.8 mg/kg/inj ip, qd 1→9): 6/6; Average Weight Change,g (L-1210 Leukemia; 1.6 mg/kg/inj ip, qd 1→9): -2.9 g; Effect MST % T/C (L-1210 Leukemia; 1.6 mg/kg/inj ip, qd 1→9): 154 % T/C; MST Days (L-1210 Leukemia; 1.6 mg/kg/inj ip, qd 1→9): 10.0 days; Survivors Day 5(45) (L-1210 Leukemia; 1.6 mg/kg/inj ip, qd 1→9): 6/6; Average Weight Change,g (L-1210 Leukemia; 2 mg/kg/inj ip, Day 1): -0.7 g; Effect MST % T/C (L-1210 Leukemia; 2 mg/kg/inj ip, Day 1): 138 % T/C; MST Days (L-1210 Leukemia; 2 mg/kg/inj ip, Day 1): 9.0 days; Survivors Day 5(45) (L-1210 Leukemia; 2 mg/kg/inj ip, Day 1): 6/6; Average Weight Change,g (L-1210 Leukemia; 2.4 mg/kg/inj ip, qd 1→9): -3.8 g; Effect MST % T/C (L-1210 Leukemia; 2.4 mg/kg/inj ip, qd 1→9): 177 % T/C; MST Days (L-1210 Leukemia; 2.4 mg/kg/inj ip, qd 1→9): 11.5 days; Survivors Day 5(45) (L-1210 Leukemia; 2.4 mg/kg/inj ip, qd 1→9): 6/6; Average Weight Change,g (L-1210 Leukemia; 4 mg/kg/inj ip, Day 1): -2.1 g; Effect MST % T/C (L-1210 Leukemia; 4 mg/kg/inj ip, Day 1): 123 % T/C; MST Days (L-1210 Leukemia; 4 mg/kg/inj ip, Day 1): 8.0 days; Survivors Day 5(45) (L-1210 Leukemia; 4 mg/kg/inj ip, Day 1): 6/6; Average Weight Change,g (L-1210 Leukemia; 6 mg/kg/inj ip, Day 1): -3.7 g; Effect MST % T/C (L-1210 Leukemia; 6 mg/kg/inj ip, Day 1): 154 % T/C; MST Days (L-1210 Leukemia; 6 mg/kg/inj ip, Day 1): 10.0 days; Survivors Day 5(45) (L-1210 Leukemia; 6 mg/kg/inj ip, Day 1): 6/6; Average Weight Change,g (L-1210 Leukemia; 8 mg/kg/inj ip, Day 1): -3.4 g; Effect MST % T/C (L-1210 Leukemia; 8 mg/kg/inj ip, Day 1): 185 % T/C; MST Days (L-1210 Leukemia; 8 mg/kg/inj ip, Day 1): 12.0 days; Survivors Day 5(45) (L-1210 Leukemia; 8 mg/kg/inj ip, Day 1): 6/6; maximum T/C (L-1210 Leukemia; qd 1→9 (cis-DDP 2.4, parent 8 and 12, sodium salt 12 mg/kg/injection)): 177%; maximum T/C (L-1210 Leukemia; single ip injection at maximum tolerated dose (cis-DDP 8 mg/kg, the two others 36 mg/kg)): 185%; Average Weight Change (L1210 Leukemia; [1]): −3.8; Effect MST % T/C (L1210 Leukemia; [1]): 143 % T/C; MST Days (L1210 Leukemia; [1]): 10.0 days; Survivors Day 5(30) (L1210 Leukemia; [1]): 6/6; Average Weight Change (L1210 Leukemia; [2]): +1.5; Effect MST % T/C (L1210 Leukemia; [2]): 100 % T/C; MST Days (L1210 Leukemia; [2]): 7.0 days; Average Weight Change (L1210 Leukemia; 1 mg/kg/day ip, qd 1→9, in H2O): −3.7; Effect MST % T/C (L1210 Leukemia; 1 mg/kg/day ip, qd 1→9, in H2O): 114 % T/C; MST Days (L1210 Leukemia; 1 mg/kg/day ip, qd 1→9, in H2O): 8.0 days; Survivors Day 5(30) (L1210 Leukemia; 1 mg/kg/day ip, qd 1→9, in H2O): 6/6; Average Weight Change (L1210 Leukemia; [3]): −0.9; Effect MST % T/C (L1210 Leukemia; [3]): 150 % T/C; MST Days (L1210 Leukemia; [3]): 10.5 days; Survivors Day 5(30) (L1210 Leukemia; [3]): 6/6; Average Weight Change (L1210 Leukemia; 2 mg/kg/day ip, qd 1→9, in H2O): −4.0; Effect MST % T/C (L1210 Leukemia; 2 mg/kg/day ip, qd 1→9, in H2O): 86 % T/C; MST Days (L1210 Leukemia; 2 mg/kg/day ip, qd 1→9, in H2O): 6.0 days; Survivors Day 5(30) (L1210 Leukemia; 2 mg/kg/day ip, qd 1→9, in H2O): 4/6; Average Weight Change (L1210 Leukemia; [4]): −3.3; Effect MST % T/C (L1210 Leukemia; [4]): 250 % T/C; MST Days (L1210 Leukemia; [4]): 17.5 days; Average Weight Change (L1210 Leukemia; [5]): −5.9; Effect MST % T/C (L1210 Leukemia; [5]): 100 % T/C; MST Days (L1210 Leukemia; [5]): 7.0 days; Survivors Day 5(30) (L1210 Leukemia; [5]): 6/6; Average Weight Change (L1210 Leukemia; [6]): −0.7; Effect MST % T/C (L1210 Leukemia; [6]): 164 % T/C; MST Days (L1210 Leukemia; [6]): 11.5 days; Survivors Day 5(30) (L1210 Leukemia; [6]): 6/6; Average Weight Change (L1210 Leukemia; [7]): TOX; Effect MST % T/C (L1210 Leukemia; [7]): TOX; MST Days (L1210 Leukemia; [7]): TOX; Survivors Day 5(30) (L1210 Leukemia; [7]): 1/6; Effect MST % T/C (L1210 Leukemia; [8]): 186 % T/C; MST Days (L1210 Leukemia; [8]): 13.0 days; Survivors Day 5(30) (L1210 Leukemia; [8]): 6/6; Average Weight Change (L1210 Leukemia; [9]): TOX; Effect MST % T/C (L1210 Leukemia; [9]): TOX; MST Days (L1210 Leukemia; [9]): TOX; Survivors Day 5(30) (L1210 Leukemia; [9]): 4/6; Effect MST % T/C (L1210 Leukemia; [10]): 193 % T/C; MST Days (L1210 Leukemia; [10]): 13.5 days; Survivors Day 5(30) (L1210 Leukemia; [10]): 6/6; Average Weight Change (L1210 Leukemia; [11]): TOX; Effect MST % T/C (L1210 Leukemia; [11]): TOX; MST Days (L1210 Leukemia; [11]): TOX; Survivors Day 5(30) (L1210 Leukemia; [11]): 1/6; Average Weight Change (L1210 Leukemia; [12]): −3.6; MST Days (L1210 Leukemia; [12]): 14.5 days; Survivors Day 5(30) (L1210 Leukemia; [12]): 6/6
